Data taken from patent US20250213550A1, “COMPOUNDS AND METHODS FOR TREATING INFLAMMATORY BOWEL DISEASE” (Gilead Sciences, Inc., priority 2023, published 2025).
Like-named read-outs stand apart in the source and are kept apart here.

Experiment: Phase 1 single- and multiple-ascending dose study: plasma PK of Compound A after oral Compound 1
Format: in vivo, human
Conditions: for Ctau / AUCtau/D / Cmax/D / AUC: Day 10, mean; for AUCtau/D / Cmax/D: dose-normalized; for half-life / AUC / Tmax: human, plasma
Method: A 2-part, single- and multiple-ascending dose sponsor-unblinded Phase 1 study was conducted for Cohorts 1-9 to evaluate the safety, tolerability, PK, and PD of Compound 1 in healthy participants. Up to 72 participants ages 18 to 55 years (inclusive) and having body mass index (BMI) of ≥19.0 and ≤30.0 kg/m^2 were enrolled. For Cohort 9, participants were homozygous for the UGT1A1*28 allele (UGT1A1 *28/*28: TA7/TA7).
Part A proceeded in 4 staggered, dose-escalation cohorts. Within each of Cohorts 1-4, 8 unique participants were randomized 3:1 to receive blinded Compound 1 (N=6) or placebo-to-match (PTM) (N=2). The dose of Compound 1 for all adaptive cohorts (Cohorts 2, 3, and 4) was determined based on cumulative safety and available PK data through a minimum of Day 3 from previous cohorts, not exceeding the specified upper dose limit (Table 2). Dosing in Part A was completed prior to proceeding with Part B.
Part B proceeded in up to 5 staggered, dose-escalation cohorts. Within each of Cohorts 5-9, 8 unique participants were randomized 3:1 to receive blinded Compound 1 (N=6) or PTM (N=2). Start of multiple dosing within Adaptive Cohort 5 was determined by review of the cumulative safety and PK data through at least Day 3 of the final cohort in Part A. Initiation of subsequent multiple-dose cohorts at a higher dose (Cohorts 6, 7, 8, and 9) was determined based on cumulative safety through at least Day 10 from all participants enrolled in the previous multiple-dose cohort (Table 3).
For Cohorts 1-4, plasma PK sampling occurred relative to the dose of Compound 1 at the following time points: • Day 1: 0 (pre-dose, ≤5 min prior to dosing), 0.25, 0.5, 1, 1.5, 2, 3, 4, 6, 8, 12, 18, 24, 36, 48, 72, 96, and 120 hours post-dose A single plasma PK sample was collected at early termination (ET), if applicable.
For Cohorts 5-9, plasma PK sampling occurred relative to the dose of Compound 1 at the following time points: • Day 1 (Cohorts 8 and 9): pre-dose (≤5 min before dose), 0.5, 1, 2, 3, 4, 6, 8, 12, 13, 14, 15, 16, 18, and 20 hours post-dose (relative to AM dose) • Day 10 (Cohorts 5-9): pre-dose (≤5 min before dose), 0.25, 0.5, 1, 1.5, 2, 3, 4, 6, 8, 12, 18, 24, 36, 48, 72, 96, and 120 hours post-dose • A pre-dose sample was collected on Days 2, 4, 7, and 8. A single plasma PK sample was collected at early termination (ET), if applicable.
Concentrations of Compound 1, and its respective metabolites Compound A and Compound B in plasma PK samples were determined by validated high-performance liquid chromatography-tandem mass spectrometry (LC-MS/MS) bioanalytical methods.
Pharmacokinetic parameters for Compound 1 and its metabolites were determined from the plasma concentration-time profiles for all evaluable participants.
Compound 1 was administered under fasting conditions following an overnight fast (no food or drinks except water) for at least 10 hours; food could be consumed 4 hours after administration of Compound 1.

[1] = Cohort 5, 75 mg Cpd 1 QD fasted
[2] = Cohort 6, 300 mg Cpd 1 QD fasted
[3] = Cohort 7, 900 mg Cpd 1 QD fasted

Ctau [1]: 0.273 µg/mL | Ctau [2]: 1.07 µg/mL | Ctau [3]: 2.33 µg/mL | time to steady-state exposures (Compound 1 once-daily dosing): ≤ 7 days | AUCtau/D [1]: 0.141 µg·h/mL | Cmax/D [1]: 0.0131 µg/mL | AUCtau/D [2]: 0.125 µg·h/mL | Cmax/D [2]: 0.0106 µg/mL | AUCtau/D [3]: 0.0691 µg·h/mL | Cmax/D [3]: 0.0055 µg/mL | half-life (oral, 75 mg, Cohort 5, 75 mg Cpd 1 QD fasted, Day 10, median, read-out: t1/2 (converted)): 1310 min | half-life (oral, 300 mg, Cohort 6, 300 mg Cpd 1 QD fasted, Day 10, median, read-out: t1/2 (converted)): 1140 min | half-life (oral, 900 mg, Cohort 7, 900 mg Cpd 1 QD fasted, Day 10, median, read-out: t1/2 (converted)): 1710 min | half-life (oral, across Compound 1 dose levels, single or multiple doses, read-out: median t1/2): 1200 to 1800 min | AUC (oral, Cohort 5, 75 mg Cpd 1 QD fasted): 10500 ng·h/mL | Tmax (oral, Cohort 5, 75 mg Cpd 1 QD fasted, Day 10, median, read-out: Tmax): 3 h | AUC (oral, Cohort 6, 300 mg Cpd 1 QD fasted): 37400 ng·h/mL | Tmax (oral, Cohort 6, 300 mg Cpd 1 QD fasted, Day 10, median, read-out: Tmax): 4 h | AUC (oral, Cohort 7, 900 mg Cpd 1 QD fasted): 62200 ng·h/mL | Tmax (oral, Cohort 7, 900 mg Cpd 1 QD fasted, Day 10, median, read-out: Tmax): 3.01 h | Tmax (oral, multiple doses of Compound 1 (75 to 900 mg QD, 600 mg BID), fasted, range across cohorts, read-out: median Tmax): 2 to 4 h | half-life (oral, multiple doses of Compound 1 (75 to 900 mg QD, 600 mg BID), fasted, range across cohorts, read-out: median t1/2): 1140 to 1680 min | half-life (po, single oral doses of Compound 1 (300 to 1500 mg), fasted, range across doses, read-out: median terminal elimination t1/2): 1320 to 1740 min | Tmax (single oral doses of Compound 1 (300 to 1500 mg), fasted, range across doses, read-out: median Tmax): 3 to 4 h | exposure (AUC) accumulation (multiple dosing of 600 mg Compound 1 once daily): approximately 2 fold | steady-state plasma exposure (Cmax and AUC) (multiple once-daily doses of Compound 1, 75 to 900 mg, fasted): increased in a dose-dependent manner | plasma exposure (Cmax, AUCinf, and AUClast) (single oral doses of Compound 1, 300 to 900 mg dose range, fasted): increased in a dose-dependent manner
Compound: Cn1ccc2c([C@H](Nc3cc(Cl)c4ncc(C#N)c(NCC(C)(C)C)c4c3)c3cn(C45CC(C4)C5)nn3)cccc2c1=O [Compound A]
